{
  "source": "patent US9028856B2",
  "about": "“Synergistic pesticide compositions” (priority 2008, dated 2015)",
  "key": {"[1]": {"system": "Musca domestica, resistant strain Reichswald", "assay": "Efficacy of formulations on surfaces (glazed/unglazed tiles), house flies, continuous exposure", "assay_type": "in vivo", "conditions": "strain RW resistant, acetone solutions on glazed tiles, mean of three replicates", "description": "All surfaces were provided with talcum-coated glass rings (diameter 9.5 cm, height 5.5 cm) one day later.\nThe test insects were anesthetized with CO2, 20 individuals were placed onto the treated surfaces and the glass ring was covered with wire gauze ring. […]\nEach test consisted of at least one replicate and any additional replicates are noted.\nTest Insects: House flies (Musca domestica) of both sexes, susceptible strain WHO(N) and resistant strain Reichswald\nEvaluation: Mortality was evaluated cumulatively at different times. […]\nTest Insects: Culex quinquefasciatus (adults) (3 minutes exposure time according to USDA Petri Dish Method), Musca domestica (adults), susceptible and resistant strain, Blattella germanica (males), Cimex lectularius (adults) (all: continuous exposure time)\nApplication: The EC formulation (diluted with water 1:9) were applied as 0.85 ml solutions onto glazed tiles (15 cm×15 cm)"}, "[2]": {"system": "Musca domestica, resistant strain Reichswald", "assay": "Efficacy of formulations on surfaces (glazed/unglazed tiles), house flies, continuous exposure", "assay_type": "in vivo", "conditions": "strain RW resistant, acetone solutions on glazed tiles, mean of three replicates", "remark": "listed apart in the source"}, "[3]": {"system": "Argentine ant, Linepithema humile", "assay": "Knockdown/mortality of ant workers under continuous exposure on treated glazed tile", "conditions": "Table 41, aqueous permethrin/adjuvant, glazed tile", "outline": "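0.5% AI imidacloprid in acetone, alone or with 0.1, 1.0 or 5.0% additive (benzenepropanoic acid, oleic acid, methyl oleate, methyl linoleate, methyl palmitate or BHA), 1 ml dried overnight on glazed tile (~161 cm^2). Ten workers confined under continuous exposure, water from 3 h; knockdown/mortality scored at intervals and 24 h; ≥3 replicates.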"}, "Aedes aegypti mosquito": {"system": "Aedes aegypti mosquito", "assay": "USDA Petri Dish Method, 3 min exposure to dipped fiberglass window screen", "assay_type": "in vivo", "conditions": "dipped screen, 3 min exposure", "description": "MATERIALS AND METHODS: Aqueous solutions of 1% deltamethrin with and without an adjuvant composition, which is sold under the tradename Suspend® SC. […] Pre-cut fiberglass screen (5″×5″, or 161.3 cm^2) were dipped in each treatment solution and excessive solution was allowed to drain completely (see FIG. 23 a). Weight of the solution coated on the screen was then determined. The treated screen was then allowed to air-dry overnight. USDA Petri Dish Method was used as initial screening protocol (see FIG. 23 b). Twenty, 4-6 day old female Aedes aegypti were exposed to treated window screen for 3 minutes and then moved onto a clean untreated white paper index card. Treatments were replicated a minimum of three times. Mosquito knockdown was evaluated at 3 minute intervals for the first 15 minutes and then at 5 minute intervals for the remainder of an hour. A small cotton ball with sucrose solution was added on the screen top of the Petri dish as a drinking source. Mortality was evaluated at 24 hours after exposure.\nMATERIALS AND METHODS: Several rates of permethrin without adjuvant were prepared using product sold under the tradename Permanone® 40 to determine an effective rate against Aedes aegypti mosquitoes. After determining an effective rate range, aqueous solutions of permethrin at 1.25, 1.0 and 0.05% AI were prepared with and without adjuvant. […] Pre-cut fiberglass screens (5″×5″ or 161.3 cm^2) were dipped in each treatment solution allowing excessive solution to drain completely. Weight of the solution coated on the screen was then determined. The treated screen was then allowed to air-dry overnight. USDA Petri Dish Method was used as initial screening protocol (see photo, right). Twenty, 4-6 day old female Aedes aegypti were exposed to treated window screen for 3 minutes and then moved to a clean untreated white paper index card. Treatments were replicated a minimum of three times. Mosquito knockdown was evaluated at 3 minute intervals for the first 15 minutes and then at 5 minute intervals for the remainder of an hour. A small cotton ball with sucrose solution was added on the screen top of the petri-dish as a drinking source. Mortality was evaluated at 24 hours after exposure."}, "[4]": {"system": "bait averse/resistant German cockroach (IHOP strain), Blattella germanica", "assay": "Knockdown/mortality of male cockroaches under continuous exposure on treated glazed tile", "assay_type": "in vivo", "conditions": "Table 42, aqueous permethrin/adjuvant, IHOP strain", "description": "Treatments were allowed to dry overnight. […] Treatments were replicated a minimum of three times. Evaluations for cockroach knockdown/mortality were made at various intervals for 1 hour and at 24 hours after exposure.\nTreatments were allowed to dry overnight. […] Evaluations for cockroach knockdown/mortality were made at various intervals and at 60 minutes after exposure.\n(§1) Treatments were allowed to dry overnight. […] Treatments were replicated a minimum of three times."}, "[5]": {"system": "Odorous House ant, Tapinoma sessile", "assay": "Knockdown/mortality of ant workers under continuous exposure on treated glazed tile", "assay_type": "in vivo", "conditions": "Table 43, aqueous permethrin/adjuvant, glazed tile", "outline": "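Treatments applied to about 161 cm2 glazed tile and dried overnight, with at least three replicates.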"}, "[6]": {"system": "Red Imported Fire ant (RIFA), Solenopsis invicta", "assay": "Knockdown/mortality of ant workers under continuous exposure on treated glazed tile", "assay_type": "in vivo", "conditions": "Table 44, aqueous permethrin/adjuvant, glazed tile", "source_text": "Treatments were allowed to dry overnight. […] Treatments were replicated minimum three times.\nas §1"}, "[7]": {"system": "susceptible/normal German cockroach (Monheim strain), Blattella germanica", "assay": "Knockdown/mortality of male cockroaches under continuous exposure on treated glazed tile", "assay_type": "in vivo", "conditions": "Table 45, aqueous permethrin/adjuvant, glazed tile, Monheim strain", "outline": "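Male cockroaches continuously exposed on treated glazed tile, dried overnight before exposure; at least three replicates. Knockdown/mortality scored at intervals from 5 or 10 min, over runs lasting 20 min to 24 h depending on test.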"}, "[8]": {"conditions": "Table 39, permethrin without adjuvant (Permanone 40)"}, "[9]": {"conditions": "Table 40, aqueous permethrin/adjuvant"}},
  "data": [
    {"smiles": "CC1(C)[C@H](C(=O)O[C@H](C#N)c2cccc(Oc3ccccc3)c2)[C@@H]1C=C(Br)Br", "note": "[0.020% DTM]", "values": [
      {"measurement": "% Mortality after", "setting": "[1]; 15′", "result": 0, "unit": "%"},
      {"measurement": "% Mortality after", "setting": "[1]; 30′", "result": 0, "unit": "%"},
      {"measurement": "% Mortality after", "setting": "[1]; 1 h", "result": 0, "unit": "%"},
      {"measurement": "% Mortality after", "setting": "[1]; 3 h", "result": 0, "unit": "%"},
      {"measurement": "% Mortality after", "setting": "[2]; 2 h", "result": 0, "unit": "%"},
      {"measurement": "% Mortality after", "setting": "[2]; 24 h", "result": 7, "unit": "%"}
    ]},
    {"smiles": "CC1(C)C(C=C(Cl)Cl)C1C(=O)OCc1cccc(Oc2ccccc2)c1", "note": "(centres unmarked) [Permethrin (0.5%)]", "values": [
      {"measurement": "Average % Mortality after 5 min", "setting": "[3]; 5 min", "result": 58, "unit": "%"},
      {"measurement": "Average % Mortality after 10 min", "setting": "[3]; 10 min", "result": 100, "unit": "%"},
      {"measurement": "Average % Mortality after 15 min", "setting": "[3]; 15 min", "result": 100, "unit": "%"},
      {"measurement": "Average % Mortality after 20 min", "setting": "[3]; 20 min", "result": 100, "unit": "%"},
      {"measurement": "Average % Knockdown & Mortality after 3 min", "setting": "Aedes aegypti mosquito; [8]", "result": 0, "unit": "%"},
      {"measurement": "Average % Knockdown & Mortality after 3 min", "setting": "Aedes aegypti mosquito; [9]", "result": 0, "unit": "%"},
      {"measurement": "Average % Knockdown & Mortality after 9 min", "setting": "Aedes aegypti mosquito; [8]", "result": 0, "unit": "%"},
      {"measurement": "Average % Knockdown & Mortality after 9 min", "setting": "Aedes aegypti mosquito; [9]", "result": 1, "unit": "%"},
      {"measurement": "Average % Knockdown & Mortality after 15 min", "setting": "Aedes aegypti mosquito; [8]", "result": 0, "unit": "%"},
      {"measurement": "Average % Knockdown & Mortality after 15 min", "setting": "Aedes aegypti mosquito; [9]", "result": 1, "unit": "%"},
      {"measurement": "Average % Knockdown & Mortality after 30 min", "setting": "Aedes aegypti mosquito; [8]", "result": 0, "unit": "%"},
      {"measurement": "Average % Knockdown & Mortality after 30 min", "setting": "Aedes aegypti mosquito; [9]", "result": 0, "unit": "%"},
      {"measurement": "Average % Knockdown & Mortality after 60 min", "setting": "Aedes aegypti mosquito; [8]", "result": 0, "unit": "%"},
      {"measurement": "Average % Knockdown & Mortality after 60 min", "setting": "Aedes aegypti mosquito; [9]", "result": 0, "unit": "%"},
      {"measurement": "Average % Knockdown & Mortality after 24 hr", "setting": "Aedes aegypti mosquito; [8]", "result": 9, "unit": "%"},
      {"measurement": "Average % Knockdown & Mortality after 24 hr", "setting": "Aedes aegypti mosquito; [9]", "result": 6, "unit": "%"},
      {"measurement": "Average % Mortality after 10 min", "setting": "[4]; 10 min", "result": 40, "unit": "%"},
      {"measurement": "Average % Mortality after 20 min", "setting": "[4]; 20 min", "result": 87, "unit": "%"},
      {"measurement": "Average % Mortality after 40 min", "setting": "[4]; 40 min", "result": 93, "unit": "%"},
      {"measurement": "Average % Mortality after 60 min", "setting": "[4]; 60 min", "result": 100, "unit": "%"},
      {"measurement": "Average % Mortality after 10 min", "setting": "[5]; 10 min", "result": 13, "unit": "%"},
      {"measurement": "Average % Mortality after 20 min", "setting": "[5]; 20 min", "result": 50, "unit": "%"},
      {"measurement": "Average % Mortality after 30 min", "setting": "[5]; 30 min", "result": 93, "unit": "%"},
      {"measurement": "Average % Mortality after 60 min", "setting": "[5]; 60 min", "result": 100, "unit": "%"},
      {"measurement": "Average % Mortality after 5 min", "setting": "[6]; 5 min", "result": 43, "unit": "%"},
      {"measurement": "Average % Mortality after 15 min", "setting": "[6]; 15 min", "result": 100, "unit": "%"},
      {"measurement": "Average % Mortality after 30 min", "setting": "[6]; 30 min", "result": 100, "unit": "%"},
      {"measurement": "Average % Mortality after 60 min", "setting": "[6]; 60 min", "result": 100, "unit": "%"},
      {"measurement": "Average % Mortality after 10 min", "setting": "[7]; 10 min", "result": 100, "unit": "%"},
      {"measurement": "Average % Mortality after 20 min", "setting": "[7]; 20 min", "result": 100, "unit": "%"},
      {"measurement": "Average % Mortality after 30 min", "setting": "[7]; 30 min", "result": 100, "unit": "%"},
      {"measurement": "Average % Mortality after 4 hr", "setting": "[7]; 4 hr", "result": 100, "unit": "%"}
    ]}
  ]
}
